Key:
Human Melanocortin (MC3) = molecular target: T1, Human Melanocortin (MC3) (Homo sapiens, UniProt P41968); assay: Radioligand binding, human melanocortin MC3 membranes, FlashPlate, [125I]-NDP-αMSH; conditions: compound at 10 μM; for A3: inhibition of radioligand binding, human melanocortin (MC3): [125I]-NDP-αMSH
T1 construct: purchased Perkin Elmer Biosignal
Summary of the method: (§1)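 Cloned human receptor membranes were coated onto FlashPlate wells and incubated with radioligand and compound (added from a 0.5 mM DMSO daughter plate) for 1 hour at room temperature in the dark. Scintillation counting gave percent inhibition, with DMSO defining total and reference ligand defining non-specific binding.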

Human Melanocortin (MC4) = molecular target: T2, Human Melanocortin (MC4) (Homo sapiens, UniProt P32245); assay: Radioligand binding, human melanocortin MC4 membranes, FlashPlate, [125I]-NDP-αMSH; conditions: compound at 10 μM; for A4: inhibition of radioligand binding, human melanocortin (MC4): [125I]-NDP-αMSH
T2 construct: purchased Perkin Elmer Biosignal
T2 sequence (P32245 whole entry): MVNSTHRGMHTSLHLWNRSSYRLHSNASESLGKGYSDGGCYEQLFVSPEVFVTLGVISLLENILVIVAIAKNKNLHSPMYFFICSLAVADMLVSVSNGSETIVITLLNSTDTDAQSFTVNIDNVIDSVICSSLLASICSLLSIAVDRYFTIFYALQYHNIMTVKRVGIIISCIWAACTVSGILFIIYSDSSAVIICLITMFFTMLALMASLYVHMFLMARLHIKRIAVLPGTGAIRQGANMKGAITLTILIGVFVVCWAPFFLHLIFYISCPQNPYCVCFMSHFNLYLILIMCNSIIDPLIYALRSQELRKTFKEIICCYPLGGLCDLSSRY
Summary of the method: as §1

[1] = molecular target: T3, Human neuropeptide Y (NPY-Y1) (Homo sapiens, UniProt P25929); assay: Radioligand binding, human neuropeptide Y NPY-Y1 membranes, FlashPlate, [125I]-PYY; conditions: compound at 10 μM; for A9: inhibition of radioligand binding, human neuropeptide Y (NPY-Y1): [125I]-PYY
T3 construct: purchased Perkin Elmer Biosignal
T3 sequence (P25929 1-384): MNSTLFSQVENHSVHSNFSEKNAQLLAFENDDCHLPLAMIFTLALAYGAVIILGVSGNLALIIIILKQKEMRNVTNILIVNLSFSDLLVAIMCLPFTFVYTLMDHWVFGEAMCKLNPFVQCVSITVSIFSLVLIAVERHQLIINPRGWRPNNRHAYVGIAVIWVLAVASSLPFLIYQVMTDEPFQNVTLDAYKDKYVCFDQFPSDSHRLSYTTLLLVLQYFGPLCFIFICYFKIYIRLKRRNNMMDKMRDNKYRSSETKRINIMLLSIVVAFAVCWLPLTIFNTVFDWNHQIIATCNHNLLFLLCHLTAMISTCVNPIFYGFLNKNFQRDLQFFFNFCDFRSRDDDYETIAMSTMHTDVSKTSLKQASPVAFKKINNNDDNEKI
Summary of the method: as §1

Human κ-Opioid (KOP) = molecular target: T4, Human κ-Opioid (KOP) (Homo sapiens, UniProt P41145); assay: Radioligand binding, human κ-opioid (KOP) membranes, filtration, [3H]-Diprenorphine; conditions: compound at 10 μM; for A2: inhibition of radioligand binding, human κ-opioid (KOP): [3H]-Diprenorphine
T4 construct: purchased Perkin Elmer Biosignal
T4 sequence (P41145 whole entry): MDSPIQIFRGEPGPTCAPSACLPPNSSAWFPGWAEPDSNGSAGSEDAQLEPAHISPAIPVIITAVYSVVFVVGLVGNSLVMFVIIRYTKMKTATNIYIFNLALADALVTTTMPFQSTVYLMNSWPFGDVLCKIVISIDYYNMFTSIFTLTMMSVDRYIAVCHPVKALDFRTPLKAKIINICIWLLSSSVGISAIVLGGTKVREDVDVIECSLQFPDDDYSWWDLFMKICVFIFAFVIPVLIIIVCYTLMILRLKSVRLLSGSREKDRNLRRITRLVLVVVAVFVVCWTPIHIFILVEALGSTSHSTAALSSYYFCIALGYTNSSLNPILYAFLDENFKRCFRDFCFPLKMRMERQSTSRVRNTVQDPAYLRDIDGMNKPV
Summary of the method: (§2)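 Membranes from cloned human receptors were incubated with compound and radioligand for 1 hour at room temperature. Bound ligand was collected on 0.3% PEI-soaked filters, washed with cold 50 mM Tris-HCl pH 7.4, and counted by scintillation. Percent inhibition was computed against DMSO totals and reference-ligand nonspecific wells.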

Human melanocortin (MC5) = molecular target: T5, Human melanocortin (MC5) (Homo sapiens, UniProt P33032); assay: Radioligand binding, human melanocortin MC5 membranes, FlashPlate, [125I]-NDP-αMSH; conditions: compound at 10 μM; for A5: inhibition of radioligand binding, human melanocortin (MC5): [125I]-NDP-αMSH
T5 construct: purchased Perkin Elmer Biosignal
T5 sequence (P33032 whole entry): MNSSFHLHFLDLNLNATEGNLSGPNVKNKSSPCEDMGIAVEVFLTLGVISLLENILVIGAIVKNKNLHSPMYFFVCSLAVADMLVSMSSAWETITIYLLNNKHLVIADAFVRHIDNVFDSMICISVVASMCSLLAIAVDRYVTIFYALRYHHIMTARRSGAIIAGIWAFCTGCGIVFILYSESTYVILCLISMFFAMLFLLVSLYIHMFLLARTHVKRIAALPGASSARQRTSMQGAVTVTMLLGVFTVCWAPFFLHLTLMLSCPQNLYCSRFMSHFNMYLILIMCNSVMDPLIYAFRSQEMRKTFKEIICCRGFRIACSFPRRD
Summary of the method: as §1

[2] = molecular target: T6, Human melanin-concentrating hormone (MCH1) (Homo sapiens, UniProt Q99705); assay: Radioligand binding, human melanin-concentrating hormone MCH1 membranes, FlashPlate, [125I]-S36057; conditions: compound at 10 μM; for A6: inhibition of radioligand binding, human melanin-concentrating hormone (MCH1): [125I]-S36057
T6 construct: purchased Perkin Elmer Biosignal
T6 sequence (Q99705 whole entry): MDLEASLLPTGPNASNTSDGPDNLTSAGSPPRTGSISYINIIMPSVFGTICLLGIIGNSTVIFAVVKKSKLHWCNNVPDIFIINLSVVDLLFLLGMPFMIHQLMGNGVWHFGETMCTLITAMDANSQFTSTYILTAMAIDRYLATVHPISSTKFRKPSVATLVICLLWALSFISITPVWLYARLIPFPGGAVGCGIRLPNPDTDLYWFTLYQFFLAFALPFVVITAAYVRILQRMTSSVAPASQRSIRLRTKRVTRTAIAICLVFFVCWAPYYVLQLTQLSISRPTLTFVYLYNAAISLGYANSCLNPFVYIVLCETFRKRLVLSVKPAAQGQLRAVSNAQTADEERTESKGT
Summary of the method: as §1

Human opioid (ORL1) = molecular target: T7, Human opioid (ORL1) (Homo sapiens, UniProt P41146); assay: Radioligand binding, human opioid ORL1 membranes, FlashPlate, [125I]-Nociceptin; conditions: compound at 10 μM; for A10: inhibition of radioligand binding, human opioid (ORL1): [125I]-Nociceptin
T7 construct: purchased Perkin Elmer Biosignal
T7 sequence (P41146 whole entry): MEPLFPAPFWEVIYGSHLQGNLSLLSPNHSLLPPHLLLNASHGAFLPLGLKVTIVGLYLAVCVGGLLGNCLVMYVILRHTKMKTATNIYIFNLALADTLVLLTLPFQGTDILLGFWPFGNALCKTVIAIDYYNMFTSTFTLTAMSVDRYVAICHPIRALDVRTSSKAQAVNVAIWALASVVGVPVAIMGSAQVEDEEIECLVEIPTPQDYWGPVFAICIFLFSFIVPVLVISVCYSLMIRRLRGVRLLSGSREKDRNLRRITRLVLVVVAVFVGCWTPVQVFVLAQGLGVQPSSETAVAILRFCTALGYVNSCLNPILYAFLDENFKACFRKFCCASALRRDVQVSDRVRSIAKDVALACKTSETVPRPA
Summary of the method: as §1

Human δ-opioid (DOP) = molecular target: T8, Human δ-opioid (DOP) (Homo sapiens, UniProt P41143); assay: Radioligand binding, human δ-opioid (DOP) membranes, FlashPlate, [3H]-Bremazocine; conditions: compound at 10 μM; for A1: inhibition of radioligand binding, human δ-opioid (DOP): [3H]-Bremazocine
T8 construct: purchased Perkin Elmer Biosignal
T8 sequence (P41143 whole entry): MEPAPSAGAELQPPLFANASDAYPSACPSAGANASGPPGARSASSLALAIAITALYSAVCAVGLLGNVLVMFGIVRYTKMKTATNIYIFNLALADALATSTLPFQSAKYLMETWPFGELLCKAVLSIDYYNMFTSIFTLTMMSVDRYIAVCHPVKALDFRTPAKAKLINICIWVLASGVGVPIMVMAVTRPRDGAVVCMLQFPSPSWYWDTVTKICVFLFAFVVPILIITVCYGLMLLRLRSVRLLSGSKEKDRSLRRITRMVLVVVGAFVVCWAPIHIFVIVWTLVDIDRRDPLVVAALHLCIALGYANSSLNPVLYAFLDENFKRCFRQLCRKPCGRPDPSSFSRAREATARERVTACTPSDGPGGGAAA
Summary of the method: as §1

Human μ-opioid (MOP) = molecular target: T9, Human μ-opioid (MOP) (Homo sapiens, UniProt P35372); assay: Radioligand binding, human μ-opioid (MOP) membranes, FlashPlate, [3H]-Naloxone; conditions: compound at 10 μM; for A7: inhibition of radioligand binding, human μ-opioid (MOP): [3H]-Naloxone
T9 construct: purchased Perkin Elmer Biosignal
T9 sequence (P35372 whole entry): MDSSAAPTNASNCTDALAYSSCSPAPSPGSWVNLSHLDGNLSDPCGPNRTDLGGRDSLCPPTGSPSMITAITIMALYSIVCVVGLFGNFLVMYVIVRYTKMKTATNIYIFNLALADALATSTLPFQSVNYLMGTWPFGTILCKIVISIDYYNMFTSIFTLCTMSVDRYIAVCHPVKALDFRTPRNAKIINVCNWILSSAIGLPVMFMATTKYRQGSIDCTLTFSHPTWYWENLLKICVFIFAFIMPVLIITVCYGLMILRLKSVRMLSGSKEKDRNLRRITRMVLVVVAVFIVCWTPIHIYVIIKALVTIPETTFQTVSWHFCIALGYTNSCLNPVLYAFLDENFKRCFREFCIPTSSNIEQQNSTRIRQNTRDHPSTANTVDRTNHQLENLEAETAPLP
Summary of the method: as §1

Human neurokinin (NK1) = molecular target: T10, Human neurokinin (NK1) (Homo sapiens, UniProt P25103); assay: Radioligand binding, human neurokinin NK1 membranes, filtration, [125I]-Substance P; conditions: compound at 10 μM; for A8: inhibition of radioligand binding, human neurokinin (NK1): [125I]-Substance P
T10 construct: purchased Perkin Elmer Biosignal
T10 sequence (P25103 whole entry): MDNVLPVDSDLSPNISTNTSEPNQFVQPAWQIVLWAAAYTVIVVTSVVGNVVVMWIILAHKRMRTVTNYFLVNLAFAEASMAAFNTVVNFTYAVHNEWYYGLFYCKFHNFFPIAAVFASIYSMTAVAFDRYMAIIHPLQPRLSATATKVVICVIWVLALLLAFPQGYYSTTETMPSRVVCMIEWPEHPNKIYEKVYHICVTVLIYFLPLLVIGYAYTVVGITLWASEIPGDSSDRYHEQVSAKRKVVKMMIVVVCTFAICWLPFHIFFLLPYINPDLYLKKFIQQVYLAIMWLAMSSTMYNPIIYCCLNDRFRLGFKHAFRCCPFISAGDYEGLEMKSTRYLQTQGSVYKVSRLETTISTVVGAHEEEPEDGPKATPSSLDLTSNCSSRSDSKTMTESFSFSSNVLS
Summary of the method: as §2

Mouse urotensin (mUR2) = molecular target: T11, Mouse urotensin (mUR2) (Mus musculus, UniProt Q8VIH9); assay: Radioligand binding, mouse urotensin mUR2 membranes, FlashPlate, [125I]-Urotensin II; conditions: compound at 10 μM; for A11: inhibition of radioligand binding, mouse urotensin (mUR2): [125I]-Urotensin II
T11 construct: purchased Perkin Elmer Biosignal
T11 sequence (Q8VIH9 1-385): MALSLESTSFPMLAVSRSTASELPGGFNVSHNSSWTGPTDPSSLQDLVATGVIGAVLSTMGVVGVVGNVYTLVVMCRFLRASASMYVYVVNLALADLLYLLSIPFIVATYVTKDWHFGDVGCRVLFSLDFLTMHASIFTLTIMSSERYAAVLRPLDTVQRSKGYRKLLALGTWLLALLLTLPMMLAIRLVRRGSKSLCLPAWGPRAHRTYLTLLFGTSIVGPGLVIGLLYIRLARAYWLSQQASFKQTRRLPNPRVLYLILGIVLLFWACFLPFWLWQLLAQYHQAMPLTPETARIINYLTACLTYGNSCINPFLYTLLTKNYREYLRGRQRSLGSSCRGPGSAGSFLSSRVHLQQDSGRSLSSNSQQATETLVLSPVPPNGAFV
Summary of the method: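 Cloned mouse urotensin (mUR2) receptor membranes from Perkin Elmer Biosignal were immobilized in FlashPlate microplates using a proprietary coating. Each well got 19.5 μl buffer, then 0.5 μl of DMSO, reference ligand, or compound. Adding 5 μl of [125I]-Urotensin II, diluted to 5× final concentration in binding buffer, started binding. Plates were sealed with TopSeal-A and incubated 1 hour at room temperature in the dark. Wells were counted for 30 seconds each on a TopCount after a 60-second delay, and percentage inhibition was calculated.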

T1 sequence (P41968 whole entry): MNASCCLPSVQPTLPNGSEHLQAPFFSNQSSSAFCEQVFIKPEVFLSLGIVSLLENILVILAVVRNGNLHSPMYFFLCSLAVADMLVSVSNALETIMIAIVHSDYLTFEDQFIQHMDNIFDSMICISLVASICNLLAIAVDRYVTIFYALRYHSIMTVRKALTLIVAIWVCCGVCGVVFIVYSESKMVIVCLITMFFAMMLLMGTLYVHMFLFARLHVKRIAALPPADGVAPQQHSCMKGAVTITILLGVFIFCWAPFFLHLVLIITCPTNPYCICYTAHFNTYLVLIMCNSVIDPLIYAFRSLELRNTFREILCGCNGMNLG

SMILES | A3: inhibition of radioligand binding, human melanocortin (MC3) (Human Melanocortin (MC3)) | A4: inhibition of radioligand binding, human melanocortin (MC4) (Human Melanocortin (MC4)) | A9: inhibition of radioligand binding, human neuropeptide Y (NPY-Y1) [1] | A2: inhibition of radioligand binding, human κ-opioid (KOP) (Human κ-Opioid (KOP)) | A5: inhibition of radioligand binding, human melanocortin (MC5) (Human melanocortin (MC5)) | A6: inhibition of radioligand binding, human melanin-concentrating hormone (MCH1) [2] | A10: inhibition of radioligand binding, human opioid (ORL1) (Human opioid (ORL1)) | A1: inhibition of radioligand binding, human δ-opioid (DOP) (Human δ-opioid (DOP)) | A7: inhibition of radioligand binding, human μ-opioid (MOP) (Human μ-opioid (MOP)) | A8: inhibition of radioligand binding, human neurokinin (NK1) (Human neurokinin (NK1)) | A11: inhibition of radioligand binding, mouse urotensin (mUR2) (Mouse urotensin (mUR2)) | further results
CSC1OC(COCc2ccc(-c3ccccc3)cc2)C(O)C(OCc2ccc3ccccc3c2)C1NC(=O)CCNC(=N)N (stereo not shown) [compound 314] | − (“−” indicates less than 50% inhibition at 10 μM) | − (“−” indicates less than 50% inhibition at 10 μM) | − (“−” indicates less than 50% inhibition at 10 μM) | − (“−” indicates less than 50% inhibition at 10 μM) | − (“−” indicates less than 50% inhibition at 10 μM) | − (“−” indicates less than 50% inhibition at 10 μM) | − (“−” indicates less than 50% inhibition at 10 μM) | − (“−” indicates less than 50% inhibition at 10 μM) | − (“−” indicates less than 50% inhibition at 10 μM) | + (“+” indicates greater than 50% inhibition at 10 μM) | − (“−” indicates less than 50% inhibition at 10 μM) | –
N=C(N)NCC(=O)N[C@H]1C(OCc2ccc(Cl)cc2)O[C@H](COCc2ccc3ccccc3c2)[C@@H](O)[C@@H]1OCc1ccc(-c2ccccc2)cc1 (stereo partly shown) [compound 517] | + (“+” indicates greater than 50% inhibition at 10 μM) | + (“+” indicates greater than 50% inhibition at 10 μM) | − (“−” indicates less than 50% inhibition at 10 μM) | + (“+” indicates greater than 50% inhibition at 10 μM) | + (“+” indicates greater than 50% inhibition at 10 μM) | + (“+” indicates greater than 50% inhibition at 10 μM) | − (“−” indicates less than 50% inhibition at 10 μM) | − (“−” indicates less than 50% inhibition at 10 μM) | − (“−” indicates less than 50% inhibition at 10 μM) | + (“+” indicates greater than 50% inhibition at 10 μM) | − (“−” indicates less than 50% inhibition at 10 μM) | –
CSC1OC(COCc2cccc(N)c2)C(O)C(OCc2ccc(Cl)cc2)C1NC(=O)Cc1ccccc1 (stereo not shown) [compound 333] | − (“−” indicates less than 50% inhibition at 10 μM) | − (“−” indicates less than 50% inhibition at 10 μM) | − (“−” indicates less than 50% inhibition at 10 μM) | − (“−” indicates less than 50% inhibition at 10 μM) | − (“−” indicates less than 50% inhibition at 10 μM) | − (“−” indicates less than 50% inhibition at 10 μM) | − (“−” indicates less than 50% inhibition at 10 μM) | − (“−” indicates less than 50% inhibition at 10 μM) | − (“−” indicates less than 50% inhibition at 10 μM) | + (“+” indicates greater than 50% inhibition at 10 μM) | − (“−” indicates less than 50% inhibition at 10 μM) | –
N=C(N)NCC(=O)NC1COC(COCc2ccc(Cl)cc2)C(O)C1OCc1ccc(Cl)cc1 (stereo not shown) [compound 539] | − (“−” indicates less than 50% inhibition at 10 μM) | + (“+” indicates greater than 50% inhibition at 10 μM) | − (“−” indicates less than 50% inhibition at 10 μM) | − (“−” indicates less than 50% inhibition at 10 μM) | − (“−” indicates less than 50% inhibition at 10 μM) | − (“−” indicates less than 50% inhibition at 10 μM) | − (“−” indicates less than 50% inhibition at 10 μM) | − (“−” indicates less than 50% inhibition at 10 μM) | − (“−” indicates less than 50% inhibition at 10 μM) | + (“+” indicates greater than 50% inhibition at 10 μM) | − (“−” indicates less than 50% inhibition at 10 μM) | –
COC[C@H]1OC(OCc2ccc3ccccc3c2)[C@H](NC(=O)CNC(=N)N)[C@@H](OCc2ccc(Cl)cc2)[C@@H]1O (stereo partly shown) [compound 22] | – | – | – | – | – | – | – | – | – | – | – | A3 radioligand binding inhibition (Human Melanocortin (MC3); human melanocortin MC3 membranes): − (“−” indicates less than 50% inhibition at 10 μM); A4 radioligand binding inhibition (Human Melanocortin (MC4); human melanocortin MC4 membranes): − (“−” indicates less than 50% inhibition at 10 μM); A9 radioligand binding inhibition ([1]; human NPY-Y1 membranes): − (“−” indicates less than 50% inhibition at 10 μM); A2 radioligand binding inhibition (Human κ-Opioid (KOP); human κ-opioid (KOP) membranes): − (“−” indicates less than 50% inhibition at 10 μM); A5 radioligand binding inhibition (Human melanocortin (MC5); human melanocortin MC5 membranes): + (“+” indicates greater than 50% inhibition at 10 μM); A6 radioligand binding inhibition ([2]; human MCH1 membranes): − (“−” indicates less than 50% inhibition at 10 μM); A10 radioligand binding inhibition (Human opioid (ORL1); human ORL1 membranes): − (“−” indicates less than 50% inhibition at 10 μM); A1 radioligand binding inhibition (Human δ-opioid (DOP); human δ-opioid (DOP) membranes): − (“−” indicates less than 50% inhibition at 10 μM); A7 radioligand binding inhibition (Human μ-opioid (MOP); human μ-opioid (MOP) membranes): − (“−” indicates less than 50% inhibition at 10 μM); A8 radioligand binding inhibition (Human neurokinin (NK1); human neurokinin NK1 membranes): − (“−” indicates less than 50% inhibition at 10 μM); A11 radioligand binding inhibition (Mouse urotensin (mUR2); mouse urotensin mUR2 membranes): − (“−” indicates less than 50% inhibition at 10 μM)

Reference: US20080009418A1, “Selective Inhibitors” (Alchemia LTD., priority 2004, published 2008)
